Experimental data reported in PubChem BioAssay AID1259407 (Chemical Carcinogenesis Research Information System (CCRIS), 2018).
Active and inactive are the calls of the source. How the calls were made is not given here.

Test system: CCRIS mutagenicity, Ames/micronucleus/aberration tests
Experiment: CCRIS mutagenicity studies
[1] = Test System: AMES SALMONELLA TYPHIMURIUM, Strain/Indicator: TA100, Metabolic Activation: NONE, Method: STANDARD PLATE

SMILES: C[C@]12CC[C@@H]3c4ccc(O)cc4CC[C@H]3[C@@H]1CCC2=O
- mutagenic call (End Point: IN VITRO CHROMOSOMAL ABERRATIONS, Test System: CHO CELLS, Metabolic Activation: NONE): active; positive
- mutagenic call (End Point: IN VITRO MICRONUCLEUS, Test System: MCF-7 (HUMAN MAMMARY CARCINOMA), Metabolic Activation: NONE): active; positive
- mutagenic call (Test System: UDS RAT HEPATOCYTES, Strain/Indicator: THY INCORP (18-20 HR), Metabolic Activation: NONE, Method: LIQUID SCINTILLATION COUNTING): inactive; negative

SMILES: COC1=CC=CC=CC1
- mutagenic call (Test System: AMES SALMONELLA TYPHIMURIUM, Strain/Indicator: TA98, Metabolic Activation: NONE, Method: PREINCUBATION): inactive; negative
- mutagenic call (Test System: AMES SALMONELLA TYPHIMURIUM, Strain/Indicator: TA98, Metabolic Activation: NONE, Method: STANDARD PLATE): inactive; negative
- mutagenic call (Test System: AMES SALMONELLA TYPHIMURIUM, Strain/Indicator: TA98, Metabolic Activation: RAT, LIVER, S-9, Method: PREINCUBATION): inactive; negative
- mutagenic call (Test System: AMES SALMONELLA TYPHIMURIUM, Strain/Indicator: TA98, Metabolic Activation: RAT, LIVER, S-9, Method: STANDARD PLATE): inactive; negative
- mutagenic call (Test System: AMES SALMONELLA TYPHIMURIUM, Strain/Indicator: TA100, Metabolic Activation: NONE, Method: PREINCUBATION): inactive; negative
- mutagenic call [1]: inactive; negative
- mutagenic call (Test System: AMES SALMONELLA TYPHIMURIUM, Strain/Indicator: TA100, Metabolic Activation: RAT, LIVER, S-9, Method: PREINCUBATION): inactive; negative
- mutagenic call (Test System: AMES SALMONELLA TYPHIMURIUM, Strain/Indicator: TA100, Metabolic Activation: RAT, LIVER, S-9, Method: STANDARD PLATE): inactive; negative
- mutagenic call (Test System: AMES SALMONELLA TYPHIMURIUM, Strain/Indicator: TA1535, Metabolic Activation: NONE, Method: PREINCUBATION): inactive; negative
- mutagenic call (Test System: AMES SALMONELLA TYPHIMURIUM, Strain/Indicator: TA1535, Metabolic Activation: NONE, Method: STANDARD PLATE): inactive; negative
- mutagenic call (Test System: AMES SALMONELLA TYPHIMURIUM, Strain/Indicator: TA1535, Metabolic Activation: RAT, LIVER, S-9, Method: PREINCUBATION): inactive; negative
- mutagenic call (Test System: AMES SALMONELLA TYPHIMURIUM, Strain/Indicator: TA1535, Metabolic Activation: RAT, LIVER, S-9, Method: STANDARD PLATE): inactive; negative
- mutagenic call (Test System: AMES SALMONELLA TYPHIMURIUM, Strain/Indicator: TA1537, Metabolic Activation: NONE, Method: PREINCUBATION): inactive; negative
- mutagenic call (Test System: AMES SALMONELLA TYPHIMURIUM, Strain/Indicator: TA1537, Metabolic Activation: RAT, LIVER, S-9, Method: PREINCUBATION): inactive; negative
- mutagenic call (Test System: AMES SALMONELLA TYPHIMURIUM, Strain/Indicator: TA1538, Metabolic Activation: NONE, Method: PREINCUBATION): inactive; negative
- mutagenic call (Test System: AMES SALMONELLA TYPHIMURIUM, Strain/Indicator: TA1538, Metabolic Activation: NONE, Method: STANDARD PLATE): active; positive
- mutagenic call (Test System: AMES SALMONELLA TYPHIMURIUM, Strain/Indicator: TA1538, Metabolic Activation: RAT, LIVER, S-9, Method: PREINCUBATION): inactive; negative
- mutagenic call (Test System: AMES SALMONELLA TYPHIMURIUM, Strain/Indicator: TA1538, Metabolic Activation: RAT, LIVER, S-9, Method: STANDARD PLATE): active; positive
- mutagenic call (Test System: CHINESE HAMSTER V-79, Strain/Indicator: V-79/8-AZAGUANINE (HGPRT), Metabolic Activation: NONE, Method: STANDARD PLATE): active; positive
- mutagenic call (Test System: CHINESE HAMSTER V-79, Strain/Indicator: V-79/8-AZAGUANINE (HGPRT), Metabolic Activation: RAT, LIVER, S-9, Method: STANDARD PLATE): active; positive
- mutagenic call (Test System: MOUSE LYMPHOMA, Strain/Indicator: L5178Y (TK+/TK-), Metabolic Activation: NONE): inactive; negative
- mutagenic call (Test System: MOUSE LYMPHOMA, Strain/Indicator: L5178Y (TK+/TK-), Metabolic Activation: RAT, LIVER, S-9): active; positive
- mutagenic call (Test System: MOUSE LYMPHOMA, Strain/Indicator: L5178Y (TK+/TK-), Metabolic Activation: RAT, LIVER, S-9, AROCLOR 1254): active; positive

SMILES: CC1=C(Cl)C(=O)NC1=O
- mutagenic call [1]: inactive; negative
